Measurements: patent US10266497B2 (ABIDE THERAPEUTICS, INC., priority 2017, dated 2019)

Columns and labels:
FAAH [1] = target: T1, FAAH (Homo sapiens, UniProt O00519); experiment: In vitro competitive activity-based protein profiling, FAAH, human; conditions: for inhibition at 1 µM: read-out: FAAH % inh. 1 μM (human)
T1 sequence (O00519 1-579): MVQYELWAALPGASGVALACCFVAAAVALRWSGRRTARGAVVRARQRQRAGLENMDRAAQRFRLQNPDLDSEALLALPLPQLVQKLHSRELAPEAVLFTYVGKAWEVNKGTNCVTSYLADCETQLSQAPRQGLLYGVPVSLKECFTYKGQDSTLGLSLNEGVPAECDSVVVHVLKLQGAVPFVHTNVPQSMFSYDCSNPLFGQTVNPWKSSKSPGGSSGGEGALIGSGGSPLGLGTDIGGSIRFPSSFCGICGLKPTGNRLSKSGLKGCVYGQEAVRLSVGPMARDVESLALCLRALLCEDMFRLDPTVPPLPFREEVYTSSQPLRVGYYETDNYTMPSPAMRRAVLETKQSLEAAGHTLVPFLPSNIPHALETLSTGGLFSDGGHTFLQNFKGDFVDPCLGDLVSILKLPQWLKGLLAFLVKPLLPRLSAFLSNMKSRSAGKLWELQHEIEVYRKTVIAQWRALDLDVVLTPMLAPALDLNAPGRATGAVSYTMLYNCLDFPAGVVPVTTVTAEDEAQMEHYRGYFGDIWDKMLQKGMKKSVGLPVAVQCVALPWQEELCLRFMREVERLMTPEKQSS

MAGL [2] = target: T2, MAGL (Mus musculus, UniProt O35678); experiment: In vitro competitive activity-based protein profiling, MAGL, mouse; conditions: read-out: MAGL % inh. 1 μM (mouse)
T2 sequence (O35678 1-303): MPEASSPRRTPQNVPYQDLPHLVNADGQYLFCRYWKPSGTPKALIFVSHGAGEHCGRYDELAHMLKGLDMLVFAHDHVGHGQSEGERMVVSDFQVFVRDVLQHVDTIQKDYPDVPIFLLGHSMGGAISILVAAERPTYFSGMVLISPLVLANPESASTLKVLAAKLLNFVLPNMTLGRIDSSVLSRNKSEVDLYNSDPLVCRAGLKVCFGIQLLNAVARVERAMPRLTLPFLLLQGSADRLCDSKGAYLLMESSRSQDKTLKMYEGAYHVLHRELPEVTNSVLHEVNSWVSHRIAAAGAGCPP

MAGL [3] = target: T3, MAGL (Homo sapiens, UniProt Q99685); experiment: In vitro competitive activity-based protein profiling, MAGL, human; conditions: for inhibition at 1 µM: read-out: MAGL % inh. 1 μM (human)
T3 sequence (Q99685 1-303): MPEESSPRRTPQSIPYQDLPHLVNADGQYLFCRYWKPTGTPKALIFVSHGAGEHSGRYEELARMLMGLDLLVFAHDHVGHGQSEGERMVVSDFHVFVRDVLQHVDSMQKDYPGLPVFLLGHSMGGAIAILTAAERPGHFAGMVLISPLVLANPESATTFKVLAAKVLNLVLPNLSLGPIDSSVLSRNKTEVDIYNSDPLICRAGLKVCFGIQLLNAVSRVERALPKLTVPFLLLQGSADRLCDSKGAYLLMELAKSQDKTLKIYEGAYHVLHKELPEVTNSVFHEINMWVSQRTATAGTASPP

FAAH [4] = target: T4, FAAH (Mus musculus, UniProt O08914); experiment: In vitro competitive activity-based protein profiling, FAAH, mouse; conditions: read-out: FAAH % inh. 1 μM (mouse)
T4 sequence (O08914 1-579): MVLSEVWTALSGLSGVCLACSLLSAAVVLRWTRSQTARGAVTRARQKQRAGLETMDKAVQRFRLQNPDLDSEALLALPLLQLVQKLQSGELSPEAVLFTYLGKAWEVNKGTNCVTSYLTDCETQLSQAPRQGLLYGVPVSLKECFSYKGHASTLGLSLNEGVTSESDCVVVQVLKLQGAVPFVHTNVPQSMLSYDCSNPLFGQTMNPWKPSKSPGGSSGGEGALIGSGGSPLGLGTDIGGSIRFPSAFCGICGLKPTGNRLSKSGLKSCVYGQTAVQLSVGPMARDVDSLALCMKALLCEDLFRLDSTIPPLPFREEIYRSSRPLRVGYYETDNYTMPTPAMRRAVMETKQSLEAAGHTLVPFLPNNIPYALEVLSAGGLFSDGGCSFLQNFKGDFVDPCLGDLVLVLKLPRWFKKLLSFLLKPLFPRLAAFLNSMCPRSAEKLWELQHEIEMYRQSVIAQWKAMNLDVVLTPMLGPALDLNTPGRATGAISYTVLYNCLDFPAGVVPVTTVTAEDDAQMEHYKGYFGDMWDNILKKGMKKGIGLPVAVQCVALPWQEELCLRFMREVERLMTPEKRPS

`O=C(O)c1ccn(C(=O)N2CCC3(CCN(Cc4cc(Cl)cc(C(F)(F)F)c4)C3)CC2)n1` [Example 72, 1-(2-(3-chloro-5-(trifluoromethyl)benzyl)-2,8-diazaspiro[4.5]decane-8-carbonyl)-1H-pyrazole-3-carboxylic acid] showed an IC50 (FAAH [1]) of 1000 to 10000 nM, an inhibition at 1 µM (FAAH [1]) of 0 to 25% and an inhibition at 1 µM (MAGL [2]) of over 75%. It also gave an inhibition at 1 µM (MAGL [3]) of over 75% and an inhibition at 1 µM (FAAH [4]) of 0 to 25%.

Work on `O=C(O)c1ccn(C(=O)N2CCC3(CCN(Cc4cccc(-c5ccccc5)c4)C3)CC2)n1` [Example 73, 1-(2-([1,1′-biphenyl]-3-ylmethyl)-2,8-diazaspiro[4.5]decane-8-carbonyl)-1H-pyrazole-3-carboxylic acid] yielded an inhibition at 1 µM (FAAH [1]) of 0 to 25%, an inhibition at 1 µM (MAGL [2]) of over 75% and an inhibition at 1 µM (MAGL [3]) of over 75%. It also gave an inhibition at 1 µM (FAAH [4]) of 50 to 75%.

`O=C(O)c1ccn(C(=O)N2CCC3(CCN(Cc4c(Cl)cccc4C(F)(F)F)C3)CC2)n1` [Example 74, 1-(2-(2-chloro-6-(trifluoromethyl)benzyl)-2,8-diazaspiro[4.5]decane-8-carbonyl)-1H-pyrazole-3-carboxylic acid] gave an inhibition at 1 µM (FAAH [1]) of 0 to 25%, an inhibition at 1 µM (MAGL [2]) of over 75% and an inhibition at 1 µM (MAGL [3]) of over 75%. For the same compound, the inhibition at 1 µM (FAAH [4]) was 0 to 25%.

`O=C(O)c1ccn(C(=O)N2CCC3(CCN(Cc4ccc(Oc5ccc(Cl)cc5)cc4)C3)CC2)n1` [Example 75, 1-(2-(4-(4-chlorophenoxy)benzyl)-2,8-diazaspiro[4.5]decane-8-carbonyl)-1H-pyrazole-3-carboxylic acid] showed an inhibition at 1 µM (FAAH [1]) of 0 to 25%, an inhibition at 1 µM (MAGL [2]) of 50 to 75% and an inhibition at 1 µM (MAGL [3]) of over 75%. The inhibition at 1 µM (FAAH [4]) was 50 to 75%.

`O=C(O)c1ccn(C(=O)N2CCC3(CCN(Cc4ccc(C(F)(F)F)cc4Cl)C3)CC2)n1` [Example 77, 1-(2-(2-chloro-4-(trifluoromethyl)benzyl)-2,8-diazaspiro[4.5]decane-8-carbonyl)-1H-pyrazole-3-carboxylic acid] was tested, and the IC50 (FAAH [1]) was 1000 to 10000 nM, the inhibition at 1 µM (FAAH [1]) was 0 to 25% and the inhibition at 1 µM (MAGL [2]) was over 75%. For the same compound, the inhibition at 1 µM (MAGL [3]) was over 75% and the inhibition at 1 µM (FAAH [4]) was 0 to 25%.

In the case of `O=C(O)c1ccn(C(=O)N2CCC3(CCN(Cc4ccc(C(F)(F)F)c(Cl)c4)C3)CC2)n1` [Example 78, 1-(2-(3-chloro-4-(trifluoromethyl)benzyl)-2,8-diazaspiro[4.5]decane-8-carbonyl)-1H-pyrazole-3-carboxylic acid], the inhibition at 1 µM (FAAH [1]) is reported as 0 to 25%, the inhibition at 1 µM (MAGL [2]) is reported as over 75% and the inhibition at 1 µM (MAGL [3]) is reported as over 75%. It also gave an inhibition at 1 µM (FAAH [4]) of 0 to 25%.

`O=C(O)c1ccn(C(=O)N2CCC3(CCN(Cc4cc(F)cc(F)c4)C3)CC2)n1` [Example 79, 1-(2-(3,5-difluorobenzyl)-2,8-diazaspiro[4.5]decane-8-carbonyl)-1H-pyrazole-3-carboxylic acid] gave an inhibition at 10 µM (FAAH [1]; read-out: FAAH % inh. (human) at 10 uM) of 50 to 75%, an inhibition at 1 µM (MAGL [2]) of 0 to 25% and an inhibition at 10 µM (MAGL [3]; read-out: MAGL % inh. (human) at 10 uM) of over 75%. The inhibition at 1 µM (FAAH [4]) was 0 to 25%.

For `CN(Cc1cc(Cl)ccc1C(F)(F)F)C1CCN(C(=O)n2ccc(C(=O)O)n2)CC1` [Example 81, 1-(4-((5-chloro-2-(trifluoromethyl)benzyl)(methyl)amino)piperidine-1-carbonyl)-1H-pyrazole-3-carboxylic acid], the IC50 (FAAH [1]) was 100 to 1000 nM, the inhibition at 1 µM (FAAH [1]) was 50 to 75% and the inhibition at 1 µM (MAGL [2]) was over 75%. The inhibition at 1 µM (MAGL [3]) was over 75% and the inhibition at 1 µM (FAAH [4]) was 0 to 25%.

For `O=C(O)c1ccn(C(=O)N2CCC3(CCCN3Cc3ccc(C(F)(F)F)cc3N3C4CCC3COC4)CC2)n1` [Example 82, 1-(1-(2-(3-oxa-8-azabicyclo[3.2.1]octan-8-yl)-4-(trifluoromethyl)benzyl)-1,8-diazaspiro[4.5]decane-8-carbonyl)-1H-pyrazole-3-carboxylic acid], the inhibition at 1 µM (FAAH [1]) was 0 to 25%, the inhibition at 1 µM (MAGL [2]) was over 75% and the inhibition at 1 µM (MAGL [3]) was over 75%. For the same compound, the inhibition at 1 µM (FAAH [4]) was 0 to 25%.

For `O=C(O)c1ccn(C(=O)N2CCN(Cc3cccc(Oc4cccc(Cl)c4)c3)CC2)n1` [Example 84, 1-(4-(3-(3-chlorophenoxy)benzyl)piperazine-1-carbonyl)-1H-pyrazole-3-carboxylic acid], the IC50 (FAAH [1]) was 100 to 1000 nM, the inhibition at 1 µM (FAAH [1]) was 0 to 25% and the inhibition at 1 µM (MAGL [2]) was over 75%. It also gave an inhibition at 1 µM (MAGL [3]) of over 75% and an inhibition at 1 µM (FAAH [4]) of 50 to 75%.

Work on `O=C(O)c1ccn(C(=O)N2CCN(Cc3cccc(Oc4ccccc4Cl)c3)CC2)n1` [Example 85, 1-(4-(3-(2-chlorophenoxy)benzyl)piperazine-1-carbonyl)-1H-pyrazole-3-carboxylic acid] yielded an IC50 (FAAH [1]) of 1000 to 10000 nM, an inhibition at 1 µM (FAAH [1]) of 0 to 25% and an inhibition at 1 µM (MAGL [2]) of over 75%. For the same compound, the inhibition at 1 µM (MAGL [3]) was over 75% and the inhibition at 1 µM (FAAH [4]) was 50 to 75%.

Work on `O=C(O)c1ccn(C(=O)N2CCN(Cc3cc(N4CCCC4)cc(C(F)(F)F)c3)CC2)n1` [Example 87, 1-(4-(3-(pyrrolidin-1-yl)-5-(trifluoromethyl)benzyl)piperazine-1-carbonyl)-1H-pyrazole-3-carboxylic acid] yielded an inhibition at 1 µM (FAAH [1]) of 0 to 25%, an inhibition at 1 µM (MAGL [2]) of over 75% and an inhibition at 1 µM (MAGL [3]) of over 75%. For the same compound, the inhibition at 1 µM (FAAH [4]) was 0 to 25%.

`Cc1cc(-c2ccccc2)ccc1CN1CCN(C(=O)n2ccc(C(=O)O)n2)C(C)C1` (centres unmarked) [Example 89, 1-(2-methyl-4-((3-methyl-[1,1′-biphenyl]-4-yl)methyl)piperazine-1-carbonyl)-1H-pyrazole-3-carboxylic acid] gave an IC50 (FAAH [1]) of 100 to 1000 nM, an inhibition at 1 µM (FAAH [1]) of over 75% and an inhibition at 1 µM (MAGL [2]) of over 75%. The inhibition at 1 µM (MAGL [3]) was over 75% and the inhibition at 1 µM (FAAH [4]) was over 75%.

In the case of `C[C@@H]1CC[C@H](C)N1c1cc(C(F)(F)F)ccc1CN1CCN(C(=O)n2ccc(C(=O)O)n2)CC1` [Example 94, 1-(4-(2-((2R,5S)-2,5-dimethylpyrrolidin-1-yl)-4-(trifluoromethyl)benzyl)piperazine-1-carbonyl)-1H-pyrazole-3-carboxylic acid], the inhibition at 1 µM (FAAH [1]) is reported as 0 to 25%, the inhibition at 1 µM (MAGL [2]) is reported as over 75% and the inhibition at 1 µM (MAGL [3]) is reported as over 75%. It also gave an inhibition at 1 µM (FAAH [4]) of 0 to 25%.

Compound `O=C(O)c1ccn(C(=O)N2CCN(Cc3ccc(Cl)cc3N3CCN(C4CC4)CC3)CC2)n1` [Example 97, 1-(4-(4-chloro-2-(4-cyclopropylpiper-azin-1-yl)benzyl)piperazine-1-carbonyl)-1H-pyrazole-3-carboxylic acid] has an inhibition at 1 µM (FAAH [1]) of 0 to 25%, an inhibition at 1 µM (MAGL [2]) of over 75% and an inhibition at 1 µM (MAGL [3]) of over 75%. The inhibition at 1 µM (FAAH [4]) was 0 to 25%.

In the case of `NC(=O)c1ccn(C(=O)N2CCC3(CCN(Cc4cc(Cl)ccc4C(F)(F)F)C3)CC2)n1` [Example 99, 1-(2-(5-chloro-2-(trifluoromethyl)benzyl)-2,8-diazaspiro[4.5]decane-8-carbonyl)-1H-pyrazole-3-carboxamide], the inhibition at 1 µM (FAAH [1]) is reported as over 75%, the inhibition at 1 µM (MAGL [2]) is reported as over 75% and the inhibition at 1 µM (MAGL [3]) is reported as over 75%. It also gave an inhibition at 1 µM (FAAH [4]) of over 75%.

Work on `O=C(O)c1ccn(C(=O)N2CCN(Cc3ccc(C(F)(F)F)cc3N3CCC(F)CC3)CC2)n1` [Example 102, 1-(4-(2-(4-fluoropiperidin-1-yl)-4-(trifluoromethyl)benzyl)piperazine-1-carbonyl)-1H-pyrazole-3-carboxylic acid] yielded an inhibition at 1 µM (FAAH [1]) of 25 to 50%, an inhibition at 1 µM (MAGL [2]) of over 75% and an inhibition at 1 µM (MAGL [3]) of over 75%. The inhibition at 1 µM (FAAH [4]) was 0 to 25%.
